# From the supplement of paper PMC8967900
# Assays:
# Experiment in all cases: selective drug sensitivity score (sDSS, relative to normal bone marrow) (sDSS (score)); higher = more potent and effective on the cell line relative to normal bone marrow cells
# Settings in all cases: 72 h
# [1] = system: COG-LL-402h
# [2] = system: KOPN-8
# [3] = system: ALL-SIL
# [4] = system: KASUMI-9
# [5] = system: MHH-CALL-2
# [6] = system: NALL-1
# [7] = system: KARPAS-45
# [8] = system: P12-ICHIKAWA
# [9] = system: REH
# [10] = system: LC4-1
# [11] = system: MOLT-16
# [12] = system: COG-LL-355h
# [13] = system: COG-LL-394h
# [14] = system: RPMI-8402
# [15] = system: COG-LL-319h
# [16] = system: SEM cells
# [17] = system: CCRF-CEM
# [18] = system: PF-382
# [19] = system: TMD5
# [20] = system: NALM-16
# 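Note: ALL cell lines in 384-well plates, five doses spanning 10,000-fold, each plate scaled between vehicle and 100 µmol/L benzalkonium chloride controls, sDSS an adapted area-under-curve metric.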
smiles,measurement,setting,value
Cc1ccc(=O)n(-c2ccccc2)c1 [Pirfenidone] (top concentration 10000 nM),selective drug sensitivity score,[1],0
same,selective drug sensitivity score,[2],0
same,selective drug sensitivity score,[3],0
same,selective drug sensitivity score,[4],0
same,selective drug sensitivity score,[5],0
same,selective drug sensitivity score,[6],0
same,selective drug sensitivity score,[7],0
same,selective drug sensitivity score,[8],0
same,selective drug sensitivity score,[9],0
same,selective drug sensitivity score,[10],0
same,selective drug sensitivity score,[11],0
same,selective drug sensitivity score,[12],0
same,selective drug sensitivity score,[13],0
same,selective drug sensitivity score,[14],0
same,selective drug sensitivity score,[15],1.2
same,selective drug sensitivity score,[16],0
same,selective drug sensitivity score,[17],0
same,selective drug sensitivity score,[18],0
same,selective drug sensitivity score,[19],0
same,selective drug sensitivity score,[20],0
Nc1nc(Cl)nc2c1ncn2[C@H]1C[C@H](O)[C@@H](CO)O1 [Cladribine] (top concentration 1000 nM),selective drug sensitivity score,[1],3.66
same,selective drug sensitivity score,[2],9.66
same,selective drug sensitivity score,[3],9.36
same,selective drug sensitivity score,[4],7.76
same,selective drug sensitivity score,[5],4.66
same,selective drug sensitivity score,[6],1.86
same,selective drug sensitivity score,[7],-15.7
same,selective drug sensitivity score,[8],-5.24
same,selective drug sensitivity score,[9],-2.64
same,selective drug sensitivity score,[10],6.26
same,selective drug sensitivity score,[11],1.06
same,selective drug sensitivity score,[12],0.16
same,selective drug sensitivity score,[13],-16
same,selective drug sensitivity score,[14],-4.74
same,selective drug sensitivity score,[15],7.76
same,selective drug sensitivity score,[16],3.96
same,selective drug sensitivity score,[17],5.16
same,selective drug sensitivity score,[18],-5.54
same,selective drug sensitivity score,[19],-16
same,selective drug sensitivity score,[20],-8.24
Cc1cc(Nc2cc(N3CCN(C)CC3)nc(Sc3ccc(NC(=O)C4CC4)cc3)n2)n[nH]1 [Tozasertib] (top concentration 10000 nM),selective drug sensitivity score,[1],15.4
same,selective drug sensitivity score,[2],19.1
same,selective drug sensitivity score,[3],22.4
same,selective drug sensitivity score,[4],18.4
same,selective drug sensitivity score,[5],11
same,selective drug sensitivity score,[6],19.8
same,selective drug sensitivity score,[7],8.56
same,selective drug sensitivity score,[8],22.8
same,selective drug sensitivity score,[9],21.2
same,selective drug sensitivity score,[10],20.6
same,selective drug sensitivity score,[11],22.7
same,selective drug sensitivity score,[12],2.96
same,selective drug sensitivity score,[13],3.36
same,selective drug sensitivity score,[14],4.56
same,selective drug sensitivity score,[15],19.2
same,selective drug sensitivity score,[16],22.3
same,selective drug sensitivity score,[17],21.6
same,selective drug sensitivity score,[18],7.06
same,selective drug sensitivity score,[19],14.8
same,selective drug sensitivity score,[20],-0.34
